Laboratory results taken from article PMC5933747 (PLoS ONE, 2018).
Where two headings read alike, the source gives them in different places.

How the values were obtained:
Format in all cases: cell-based
human NaV1.7 = human NaV1.7 (Homo sapiens, UniProt Q15858); experiment: IonWorks Quattro (IWQ) electrophysiology, human NaV1.7
human NaV1.4 = human NaV1.4 (Homo sapiens, UniProt P35499); experiment: IonWorks Quattro (IWQ) electrophysiology, human NaV1.4
human NaV1.5 = human NaV1.5 (Homo sapiens, UniProt Q14524); experiment: IonWorks Quattro (IWQ) electrophysiology, human NaV1.5
[1] = read-out: Ala mutant IWQ IC50 NaV1.7
[2] = read-out: Ala mutant IWQ IC50 NaV1.4
[3] = read-out: Ala mutant IWQ IC50 NaV1.5
[4] = read-out: Glu mutant IWQ IC50 NaV1.7
[5] = read-out: Glu mutant IWQ IC50 NaV1.4
[6] = read-out: Glu mutant IWQ IC50 NaV1.5

Chain of human NaV1.5 (Q14524 whole entry): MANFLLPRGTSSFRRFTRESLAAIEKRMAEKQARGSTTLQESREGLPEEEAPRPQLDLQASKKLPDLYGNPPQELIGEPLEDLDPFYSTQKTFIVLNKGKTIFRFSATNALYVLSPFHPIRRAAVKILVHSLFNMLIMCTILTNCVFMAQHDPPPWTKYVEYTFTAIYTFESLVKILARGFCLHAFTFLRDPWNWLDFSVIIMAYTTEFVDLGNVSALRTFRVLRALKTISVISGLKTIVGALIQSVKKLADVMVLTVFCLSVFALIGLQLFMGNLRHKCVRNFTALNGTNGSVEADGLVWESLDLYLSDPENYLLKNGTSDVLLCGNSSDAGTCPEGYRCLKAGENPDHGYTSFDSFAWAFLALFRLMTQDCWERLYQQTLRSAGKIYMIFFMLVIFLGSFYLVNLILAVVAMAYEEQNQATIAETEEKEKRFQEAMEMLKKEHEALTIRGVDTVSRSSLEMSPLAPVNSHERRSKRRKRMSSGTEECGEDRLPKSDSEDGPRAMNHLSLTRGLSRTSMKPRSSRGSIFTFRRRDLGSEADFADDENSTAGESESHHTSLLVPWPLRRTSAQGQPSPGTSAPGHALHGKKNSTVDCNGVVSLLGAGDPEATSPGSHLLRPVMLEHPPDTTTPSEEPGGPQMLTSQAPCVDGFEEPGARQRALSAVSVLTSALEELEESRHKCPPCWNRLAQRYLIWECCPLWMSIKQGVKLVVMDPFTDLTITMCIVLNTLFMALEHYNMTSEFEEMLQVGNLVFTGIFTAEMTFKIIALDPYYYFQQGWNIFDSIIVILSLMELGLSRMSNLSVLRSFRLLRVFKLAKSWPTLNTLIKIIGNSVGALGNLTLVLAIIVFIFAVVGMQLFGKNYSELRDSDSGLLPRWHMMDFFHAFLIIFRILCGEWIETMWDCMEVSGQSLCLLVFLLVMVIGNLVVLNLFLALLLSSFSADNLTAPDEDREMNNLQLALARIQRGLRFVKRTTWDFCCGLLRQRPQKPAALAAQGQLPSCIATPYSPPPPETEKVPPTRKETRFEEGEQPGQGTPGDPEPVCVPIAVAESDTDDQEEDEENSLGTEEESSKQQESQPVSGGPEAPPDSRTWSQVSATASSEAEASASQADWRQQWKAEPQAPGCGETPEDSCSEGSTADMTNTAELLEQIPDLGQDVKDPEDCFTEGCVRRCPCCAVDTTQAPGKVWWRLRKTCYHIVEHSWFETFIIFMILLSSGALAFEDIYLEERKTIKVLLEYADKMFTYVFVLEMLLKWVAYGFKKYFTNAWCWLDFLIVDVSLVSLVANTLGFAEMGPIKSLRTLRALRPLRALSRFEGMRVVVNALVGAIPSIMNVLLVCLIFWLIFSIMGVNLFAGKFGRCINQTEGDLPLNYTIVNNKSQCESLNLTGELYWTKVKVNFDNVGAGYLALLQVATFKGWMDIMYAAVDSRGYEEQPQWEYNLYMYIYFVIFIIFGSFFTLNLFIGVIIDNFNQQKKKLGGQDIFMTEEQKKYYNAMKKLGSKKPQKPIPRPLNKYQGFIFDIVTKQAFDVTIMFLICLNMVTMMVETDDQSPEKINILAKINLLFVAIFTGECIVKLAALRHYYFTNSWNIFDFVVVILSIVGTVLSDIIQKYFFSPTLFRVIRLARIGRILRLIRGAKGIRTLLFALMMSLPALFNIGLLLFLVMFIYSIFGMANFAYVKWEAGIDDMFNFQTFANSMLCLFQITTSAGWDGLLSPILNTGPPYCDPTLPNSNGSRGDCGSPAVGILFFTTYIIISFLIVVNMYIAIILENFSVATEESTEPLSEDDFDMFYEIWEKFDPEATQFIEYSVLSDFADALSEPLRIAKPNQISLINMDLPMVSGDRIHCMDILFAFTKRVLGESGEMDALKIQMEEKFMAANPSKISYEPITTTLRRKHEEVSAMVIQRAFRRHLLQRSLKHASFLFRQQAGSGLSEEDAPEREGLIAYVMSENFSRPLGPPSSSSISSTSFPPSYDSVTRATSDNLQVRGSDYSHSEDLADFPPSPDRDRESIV
Chain of human NaV1.7 (Q15858 whole entry): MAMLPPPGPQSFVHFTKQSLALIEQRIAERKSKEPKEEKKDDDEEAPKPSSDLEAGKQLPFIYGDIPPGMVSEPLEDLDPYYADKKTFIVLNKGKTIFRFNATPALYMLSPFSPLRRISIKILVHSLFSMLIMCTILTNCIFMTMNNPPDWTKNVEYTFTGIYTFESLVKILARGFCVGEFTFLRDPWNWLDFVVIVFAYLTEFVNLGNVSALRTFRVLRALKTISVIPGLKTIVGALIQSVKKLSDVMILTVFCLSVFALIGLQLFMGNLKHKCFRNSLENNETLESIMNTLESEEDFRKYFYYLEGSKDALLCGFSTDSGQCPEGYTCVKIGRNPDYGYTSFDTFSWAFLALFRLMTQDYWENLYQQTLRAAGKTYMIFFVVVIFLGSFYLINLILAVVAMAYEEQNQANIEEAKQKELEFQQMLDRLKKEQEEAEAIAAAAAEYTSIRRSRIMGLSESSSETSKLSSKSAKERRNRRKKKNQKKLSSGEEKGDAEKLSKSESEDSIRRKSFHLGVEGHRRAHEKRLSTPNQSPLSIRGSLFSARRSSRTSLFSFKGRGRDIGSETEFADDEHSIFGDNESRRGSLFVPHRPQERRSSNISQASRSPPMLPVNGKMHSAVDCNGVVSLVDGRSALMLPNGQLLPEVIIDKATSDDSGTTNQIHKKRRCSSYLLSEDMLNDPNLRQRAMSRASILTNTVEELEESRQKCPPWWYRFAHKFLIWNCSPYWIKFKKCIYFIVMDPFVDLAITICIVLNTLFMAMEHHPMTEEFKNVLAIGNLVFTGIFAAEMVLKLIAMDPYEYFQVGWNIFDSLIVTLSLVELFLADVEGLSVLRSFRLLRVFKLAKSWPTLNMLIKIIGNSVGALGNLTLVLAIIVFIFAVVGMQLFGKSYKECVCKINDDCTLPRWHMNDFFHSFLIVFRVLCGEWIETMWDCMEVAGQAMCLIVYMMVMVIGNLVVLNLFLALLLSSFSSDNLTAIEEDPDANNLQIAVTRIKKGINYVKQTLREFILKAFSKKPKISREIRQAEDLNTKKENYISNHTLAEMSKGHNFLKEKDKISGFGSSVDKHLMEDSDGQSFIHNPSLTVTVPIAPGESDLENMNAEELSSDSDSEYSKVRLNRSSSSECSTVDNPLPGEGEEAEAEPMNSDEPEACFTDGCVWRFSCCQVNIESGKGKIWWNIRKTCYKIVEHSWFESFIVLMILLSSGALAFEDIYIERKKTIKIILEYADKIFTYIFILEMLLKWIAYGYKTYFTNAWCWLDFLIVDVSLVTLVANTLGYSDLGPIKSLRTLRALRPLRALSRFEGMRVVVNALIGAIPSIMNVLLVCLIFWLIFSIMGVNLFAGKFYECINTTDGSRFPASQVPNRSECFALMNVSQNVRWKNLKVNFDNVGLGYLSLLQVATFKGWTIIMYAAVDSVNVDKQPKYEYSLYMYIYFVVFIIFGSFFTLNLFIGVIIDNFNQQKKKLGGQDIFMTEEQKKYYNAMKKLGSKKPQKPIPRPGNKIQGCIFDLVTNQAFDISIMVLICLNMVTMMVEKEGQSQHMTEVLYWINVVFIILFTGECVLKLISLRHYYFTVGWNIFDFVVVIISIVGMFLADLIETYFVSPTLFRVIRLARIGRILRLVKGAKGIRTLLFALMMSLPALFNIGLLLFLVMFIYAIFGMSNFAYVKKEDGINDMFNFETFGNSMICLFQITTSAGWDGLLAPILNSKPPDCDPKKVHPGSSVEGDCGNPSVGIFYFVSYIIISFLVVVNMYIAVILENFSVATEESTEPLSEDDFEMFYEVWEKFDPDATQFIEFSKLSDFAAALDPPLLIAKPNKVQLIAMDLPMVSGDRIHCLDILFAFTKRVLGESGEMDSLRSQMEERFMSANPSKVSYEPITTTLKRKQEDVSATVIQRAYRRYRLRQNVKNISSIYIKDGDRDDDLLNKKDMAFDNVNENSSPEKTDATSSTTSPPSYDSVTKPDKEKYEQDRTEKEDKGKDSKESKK

Compound | IC50 (human NaV1.7; [1]) [µM] | IC50 (human NaV1.4; [2]) [µM] | IC50 (human NaV1.5; [3]) [µM] | IC50 (human NaV1.7; [4]) [µM] | IC50 (human NaV1.4; [5]) [µM] | IC50 (human NaV1.5; [6]) [µM]
CC[C@H](C)[C@H](NC(=O)[C@@H](NC(=O)[C@H](CCCCN)NC(=O)[C@H](CCCNC(=N)N)NC(=O)[C@@H]1CSSC[C@@H]2NC(=O)[C@H](C)NC(=O)[C@H](CCCNC(=N)N)NC(=O)[C@H](CCCCN)NC(=O)[C@H](CO)NC(=O)[C@H](CC(=O)O)NC(=O)[C@@H]3CSSC[C@H](NC(=O)[C@H](CCCNC(=N)N)NC(=O)[C@H](CC(C)C)NC(=O)CNC(=O)[C@H](CCC(=O)O)NC(=O)[C@H](CSSC[C@H](NC(=O)[C@@H](N)Cc4ccc(O)cc4)C(=O)N[C@@H](CCC(N)=O)C(=O)N[C@@H](CCCCN)C(=O)N[C@@H](C)C(=O)N[C@@H](CCSC)C(=O)N[C@@H](Cc4c[nH]c5ccccc45)C(=O)N[C@@H]([C@@H](C)O)C(=O)N3)NC2=O)C(=O)N[C@@H](CCCCN)C(=O)N[C@@H](CC(C)C)C(=O)N[C@@H](Cc2c[nH]c3ccccc23)C(=O)N1)[C@@H](C)CC)C(N)=O [W5 Ala mutant] | 1.55 | > 10 | > 10 |  |  | 
CC[C@H](C)[C@H](NC(=O)[C@@H](NC(=O)[C@H](CCCCN)NC(=O)[C@H](CCCNC(=N)N)NC(=O)[C@@H]1CSSC[C@@H]2NC(=O)[C@H](C)NC(=O)[C@H](CCCNC(=N)N)NC(=O)[C@H](CCCCN)NC(=O)[C@H](CO)NC(=O)[C@H](CC(=O)O)NC(=O)[C@@H]3CSSC[C@H](NC(=O)[C@H](CCCNC(=N)N)NC(=O)[C@H](CC(C)C)NC(=O)CNC(=O)[C@H](CCC(=O)O)NC(=O)[C@H](CSSC[C@H](NC(=O)[C@@H](N)Cc4ccc(O)cc4)C(=O)N[C@@H](CCC(N)=O)C(=O)N[C@@H](CCC(=O)O)C(=O)N[C@@H](Cc4c[nH]c5ccccc45)C(=O)N[C@@H](CCSC)C(=O)N[C@@H](Cc4c[nH]c5ccccc45)C(=O)N[C@@H]([C@@H](C)O)C(=O)N3)NC2=O)C(=O)N[C@@H](CCCCN)C(=O)N[C@@H](CC(C)C)C(=O)N[C@@H](Cc2c[nH]c3ccccc23)C(=O)N1)[C@@H](C)CC)C(N)=O [K4 Glu mutant] |  |  |  | 0.106 | 0.967 | > 10
CC[C@H](C)[C@H](NC(=O)[C@@H](NC(=O)[C@H](CCCCN)NC(=O)[C@H](CCCNC(=N)N)NC(=O)[C@@H]1CSSC[C@@H]2NC(=O)[C@H](C)NC(=O)[C@H](CCCNC(=N)N)NC(=O)[C@H](CCCCN)NC(=O)[C@H](CO)NC(=O)[C@H](CC(=O)O)NC(=O)[C@@H]3CSSC[C@H](NC(=O)[C@H](CCCNC(=N)N)NC(=O)[C@H](C)NC(=O)CNC(=O)[C@H](CCC(=O)O)NC(=O)[C@H](CSSC[C@H](NC(=O)[C@@H](N)Cc4ccc(O)cc4)C(=O)N[C@@H](CCC(N)=O)C(=O)N[C@@H](CCCCN)C(=O)N[C@@H](Cc4c[nH]c5ccccc45)C(=O)N[C@@H](CCSC)C(=O)N[C@@H](Cc4c[nH]c5ccccc45)C(=O)N[C@@H]([C@@H](C)O)C(=O)N3)NC2=O)C(=O)N[C@@H](CCCCN)C(=O)N[C@@H](CC(C)C)C(=O)N[C@@H](Cc2c[nH]c3ccccc23)C(=O)N1)[C@@H](C)CC)C(N)=O [L19 Ala mutant] | 2.81 | > 10 | > 10 |  |  | 
CC[C@H](C)[C@H](NC(=O)[C@@H](NC(=O)[C@H](CCCCN)NC(=O)[C@H](CCCNC(=N)N)NC(=O)[C@@H]1CSSC[C@@H]2NC(=O)[C@H](C)NC(=O)[C@H](CCCNC(=N)N)NC(=O)[C@H](CCCCN)NC(=O)[C@H](CO)NC(=O)[C@H](C)NC(=O)[C@@H]3CSSC[C@H](NC(=O)[C@H](CCCNC(=N)N)NC(=O)[C@H](CC(C)C)NC(=O)CNC(=O)[C@H](CCC(=O)O)NC(=O)[C@H](CSSC[C@H](NC(=O)[C@@H](N)Cc4ccc(O)cc4)C(=O)N[C@@H](CCC(N)=O)C(=O)N[C@@H](CCCCN)C(=O)N[C@@H](Cc4c[nH]c5ccccc45)C(=O)N[C@@H](CCSC)C(=O)N[C@@H](Cc4c[nH]c5ccccc45)C(=O)N[C@@H]([C@@H](C)O)C(=O)N3)NC2=O)C(=O)N[C@@H](CCCCN)C(=O)N[C@@H](CC(C)C)C(=O)N[C@@H](Cc2c[nH]c3ccccc23)C(=O)N1)[C@@H](C)CC)C(N)=O [D10 Ala mutant] | 0.345 | 0.917 | > 10 |  |  | 
CC[C@H](C)[C@H](NC(=O)[C@@H](NC(=O)[C@H](CCCCN)NC(=O)[C@H](CCCNC(=N)N)NC(=O)[C@@H]1CSSC[C@@H]2NC(=O)[C@H](C)NC(=O)[C@H](CCCNC(=N)N)NC(=O)[C@H](CCCCN)NC(=O)[C@H](CO)NC(=O)[C@H](CC(=O)O)NC(=O)[C@@H]3CSSC[C@H](NC(=O)[C@H](CCCNC(=N)N)NC(=O)[C@H](CC(C)C)NC(=O)CNC(=O)[C@H](CCC(=O)O)NC(=O)[C@H](CSSC[C@H](NC(=O)[C@@H](N)Cc4ccc(O)cc4)C(=O)N[C@@H](CCC(N)=O)C(=O)N[C@@H](CCCCN)C(=O)N[C@@H](Cc4c[nH]c5ccccc45)C(=O)N[C@@H](CCSC)C(=O)N[C@@H](Cc4c[nH]c5ccccc45)C(=O)N[C@@H]([C@@H](C)O)C(=O)N3)NC2=O)C(=O)N[C@@H](CCCCN)C(=O)N[C@@H](CC(C)C)C(=O)N[C@@H](C)C(=O)N1)[C@@H](C)CC)C(N)=O [W24 Ala mutant] | > 10 | > 10 | > 10 |  |  | 
CC[C@H](C)[C@H](NC(=O)[C@@H](NC(=O)[C@H](CCCCN)NC(=O)[C@H](CCCNC(=N)N)NC(=O)[C@@H]1CSSC[C@@H]2NC(=O)[C@H](C)NC(=O)[C@H](CCCNC(=N)N)NC(=O)[C@H](CCCCN)NC(=O)[C@H](CO)NC(=O)[C@H](CC(=O)O)NC(=O)[C@@H]3CSSC[C@H](NC(=O)[C@H](CCCNC(=N)N)NC(=O)[C@H](CC(C)C)NC(=O)CNC(=O)[C@H](CCC(=O)O)NC(=O)[C@H](CSSC[C@H](NC(=O)[C@@H](N)Cc4ccc(O)cc4)C(=O)N[C@@H](C)C(=O)N[C@@H](CCCCN)C(=O)N[C@@H](Cc4c[nH]c5ccccc45)C(=O)N[C@@H](CCSC)C(=O)N[C@@H](Cc4c[nH]c5ccccc45)C(=O)N[C@@H]([C@@H](C)O)C(=O)N3)NC2=O)C(=O)N[C@@H](CCCCN)C(=O)N[C@@H](CC(C)C)C(=O)N[C@@H](Cc2c[nH]c3ccccc23)C(=O)N1)[C@@H](C)CC)C(N)=O [Q3 Ala mutant] | 0.378 | 1.15 | > 10 |  |  | 
CC[C@H](C)[C@H](NC(=O)[C@@H](NC(=O)[C@H](CCCCN)NC(=O)[C@H](CCCNC(=N)N)NC(=O)[C@@H]1CSSC[C@@H]2NC(=O)[C@H](C)NC(=O)[C@H](CCCNC(=N)N)NC(=O)[C@H](CCCCN)NC(=O)[C@H](CO)NC(=O)[C@H](CC(=O)O)NC(=O)[C@@H]3CSSC[C@H](NC(=O)[C@H](CCCNC(=N)N)NC(=O)[C@H](CC(C)C)NC(=O)CNC(=O)[C@H](CCC(=O)O)NC(=O)[C@H](CSSC[C@H](NC(=O)[C@@H](N)Cc4ccc(O)cc4)C(=O)N[C@@H](CCC(N)=O)C(=O)N[C@@H](CCCCN)C(=O)N[C@@H](Cc4c[nH]c5ccccc45)C(=O)N[C@@H](CCC(=O)O)C(=O)N[C@@H](Cc4c[nH]c5ccccc45)C(=O)N[C@@H]([C@@H](C)O)C(=O)N3)NC2=O)C(=O)N[C@@H](CCCCN)C(=O)N[C@@H](CC(C)C)C(=O)N[C@@H](Cc2c[nH]c3ccccc23)C(=O)N1)[C@@H](C)CC)C(N)=O [M6 Glu mutant] |  |  |  | > 10 | > 10 | > 10
CC[C@H](C)[C@H](NC(=O)[C@@H](NC(=O)[C@H](CCCCN)NC(=O)[C@H](CCCNC(=N)N)NC(=O)[C@@H]1CSSC[C@@H]2NC(=O)[C@H](C)NC(=O)[C@H](CCC(=O)O)NC(=O)[C@H](CCCCN)NC(=O)[C@H](CO)NC(=O)[C@H](CC(=O)O)NC(=O)[C@@H]3CSSC[C@H](NC(=O)[C@H](CCCNC(=N)N)NC(=O)[C@H](CC(C)C)NC(=O)CNC(=O)[C@H](CCC(=O)O)NC(=O)[C@H](CSSC[C@H](NC(=O)[C@@H](N)Cc4ccc(O)cc4)C(=O)N[C@@H](CCC(N)=O)C(=O)N[C@@H](CCCCN)C(=O)N[C@@H](Cc4c[nH]c5ccccc45)C(=O)N[C@@H](CCSC)C(=O)N[C@@H](Cc4c[nH]c5ccccc45)C(=O)N[C@@H]([C@@H](C)O)C(=O)N3)NC2=O)C(=O)N[C@@H](CCCCN)C(=O)N[C@@H](CC(C)C)C(=O)N[C@@H](Cc2c[nH]c3ccccc23)C(=O)N1)[C@@H](C)CC)C(N)=O [R13 Glu mutant] |  |  |  | 4.57 | > 10 | > 10
CC[C@H](C)[C@H](NC(=O)[C@@H](NC(=O)[C@H](C)NC(=O)[C@H](CCCNC(=N)N)NC(=O)[C@@H]1CSSC[C@@H]2NC(=O)[C@H](C)NC(=O)[C@H](CCCNC(=N)N)NC(=O)[C@H](CCCCN)NC(=O)[C@H](CO)NC(=O)[C@H](CC(=O)O)NC(=O)[C@@H]3CSSC[C@H](NC(=O)[C@H](CCCNC(=N)N)NC(=O)[C@H](CC(C)C)NC(=O)CNC(=O)[C@H](CCC(=O)O)NC(=O)[C@H](CSSC[C@H](NC(=O)[C@@H](N)Cc4ccc(O)cc4)C(=O)N[C@@H](CCC(N)=O)C(=O)N[C@@H](CCCCN)C(=O)N[C@@H](Cc4c[nH]c5ccccc45)C(=O)N[C@@H](CCSC)C(=O)N[C@@H](Cc4c[nH]c5ccccc45)C(=O)N[C@@H]([C@@H](C)O)C(=O)N3)NC2=O)C(=O)N[C@@H](CCCCN)C(=O)N[C@@H](CC(C)C)C(=O)N[C@@H](Cc2c[nH]c3ccccc23)C(=O)N1)[C@@H](C)CC)C(N)=O [K27 Ala mutant] | 0.374 | 2.32 | > 10 |  |  | 
CC[C@H](C)[C@H](NC(=O)[C@@H](NC(=O)[C@H](CCCCN)NC(=O)[C@H](CCCNC(=N)N)NC(=O)[C@@H]1CSSC[C@@H]2NC(=O)[C@H](C)NC(=O)[C@H](CCCNC(=N)N)NC(=O)[C@H](CCCCN)NC(=O)[C@H](CO)NC(=O)[C@H](CC(=O)O)NC(=O)[C@@H]3CSSC[C@H](NC(=O)[C@H](CCCNC(=N)N)NC(=O)[C@H](CC(C)C)NC(=O)CNC(=O)[C@H](CCC(=O)O)NC(=O)[C@H](CSSC[C@H](NC(=O)[C@@H](N)Cc4ccc(O)cc4)C(=O)N[C@@H](CCC(N)=O)C(=O)N[C@@H](CCCCN)C(=O)N[C@@H](CCC(=O)O)C(=O)N[C@@H](CCSC)C(=O)N[C@@H](Cc4c[nH]c5ccccc45)C(=O)N[C@@H]([C@@H](C)O)C(=O)N3)NC2=O)C(=O)N[C@@H](CCCCN)C(=O)N[C@@H](CC(C)C)C(=O)N[C@@H](Cc2c[nH]c3ccccc23)C(=O)N1)[C@@H](C)CC)C(N)=O [W5 Glu mutant] |  |  |  | > 10 | > 10 | > 10
